In US10844013B2, “Phenyl amino piperidine mTORC inhibitors and uses thereof” (Navitor Pharmaceuticals, Inc., priority 2016, dated 2020) one finds IC50 data, which are given here for 19 molecules.

Assay type in all cases: cell-based
Test [1] relates to MCF-7 cells. Kind of test: Radioactive glucose uptake in MCF-7 cells. The note with it: Homo sapiens, MCF7, 3H-2DG uptake. As for the experimental part:
Example 157: Radioactive Glucose Uptake in MCF-7 Cells
Assay Protocol • 1. Seed approximately 12,000 MCF-7 cells cultured without insulin per well in 96-well plates (BIOCOAT, #356690) and let the cells sit in hood for 30 min. (Cell culture medium: DMEM+10% FBS). • 2. Put the cell culture plates in TC incubator (5% CO2, 37° C.) and incubate overnight. • 3. Take out the cell plates and wash with prewarmed KRH buffer (37° C.) three times using BioTek plate washer. (KRH buffer preparation: 136 mM NaCl, 4.7 mM KCl, 1.25 mM MgCl2, 1.2 mM CaCl2), 20 mM HEPES, 0.1 mg/ml sodium pyruvate, 0.1% BSA, pH 7.4). • 4. Compound preparation and treatment: • a) Add 12 ul compound stock in 100% DMSO to the first column of Echo LDV plate • b) Serially dilute the compound solution in 100% DMSO (4 uL+8 uL DMSO) using Bravo for 9 doses • c) Dispense 350 nL compounds using Echo to the working plate. • d) i) Without compound preincubation condition, dispense 116 uL KRH buffer containing tritiated 2-deoxy-D-glucose (3H-2DG) and 2-deoxy-D-glucose (2DG) to the working plate and mix. • ii. With compound preincubation condition, dispense 110 uL KRH buffer only to the working plates and mix • e) Keep the compound working plate at 37° C. incubator until use • 5. Discard the KRH buffer (cells were kept in KRH buffer for 10-15 min before 2-DG addition) and transfer 100 uL compound working solution out to the cell culture plate using Bravo. Incubate for 20 mins at 37° C. (2DG final at 0.2 mM, 3H-2DG at 10 uCi/mL). • 6. Add prewarmed 50 uL KRH buffer (37° C.) containing 60 mM cold 2DG to the wells to stop the 2DG uptake using Multidrop combi • 7. Wash the cells with prewarmed PBS three times using BioTek plate washer • 8. Add 50 uL lysis buffer (0.1 M NaOH) into the assay plate to lyse the cells using Bravo and shake at 800 rpm for 30 min. • 9. Mix and transfer 20 uL lysate to a new white plate (Corning, #3610) and add 200 uL MicroScint-20 using Bravo • 10. Shake the plate at 1000 rpm for 30 min and count in a MicroBeta plate reader.

Test [2] relates to pS6K1 (p-p70 S6 Kinase (Thr389)) in MCF-7 cells. Kind of test: AlphaLISA Ultra pS6K1 assay. To be noted: 2 hours compound incubation. In a few lines: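 MCF-7 cells seeded 20–24 h, medium refreshed 2 h, then treated 2 h with compound (0.5% DMSO final). Lysates probed for Thr389-phosphorylated p70 S6K by AlphaLISA Ultra, 2 h acceptor then 2 h donor bead incubation, read on a multimode reader.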

Test [3] has as its system pAKT (p-Akt 1/2/3 (Ser473)) in MCF-7 cells. Kind of test: AlphaLISA Ultra pAKT assay. In short, it runs like this: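 AlphaLISA read-out (2 h acceptor-bead, then 2 h donor-bead incubation) on thawed lysates of MCF-7 cells exposed to compounds for 2 h in 0.5% DMSO. Cells had been plated 20-24 h and given fresh medium 2 h before dosing.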
Setting [4] is: Homo sapiens, MCF7, 2 hours compound incubation.

Each structure is given as a SMILES string. Where a name gives a salt, the structure may show the parent alone. Read-outs that look alike come from different tables or passages of the source.

As to `Cc1cc(C)c(C(=O)N2CCN(c3ccccn3)C(CO)C2)cc1NC1CCN(c2ccccc2C#N)CC1` (single isomer, unassigned) [I-48, 2-[4-({5-[(3R or 3S)-3-(hydroxymethyl)-4-(pyridin-2-yl)piperazine-1-carbonyl]-2,4-dimethylphenyl}amino)piperidin-1-yl]benzonitrile], the 50% inhibitory concentration (IC50) in test [1] was 10 to 1000 nM; in test [2] (Homo sapiens, MCF7, 2 h), 10 to 1000 nM; in test [3] (setting [4]), greater than 10000 nM.

On to `Cc1cc(C)c(C(=O)N2CCN(c3ccccc3S(C)(=N)=O)CC2)cc1NC1CCN(c2ccccc2C#N)CC1` (single isomer, unassigned) [I-49, 2-(4-{[5-(4-{2-[(S or R)-imino(methyl)oxo-λ^6-sulfanyl]phenyl}piperazine-1-carbonyl)-2,4-dimethylphenyl]amino}piperidin-1-yl)benzonitrile], for which the concentration for half-maximal inhibition (IC50) in test [1] is 10 to 1000 nM; in test [2] (read-out: pS6K1 in MCF7: IC50) it was 10 to 1000 nM; in test [3] (setting [4]) it was greater than 10000 nM.

Turning to `Cc1cc(C)c(C(=O)N2CCN(c3ccccc3C#N)[C@H](CO)C2)cc1NC1CCN(c2ccccc2C#N)CC1` (single isomer, unassigned) [I-79, 2-[4-({5-[(3S or 3R)-4-(2-Cyanophenyl)-3-(hydroxymethyl)piperazine-1-carbonyl]-2,4-dimethylphenyl}amino)piperidin-1-yl]benzonitrile], the IC50 in test [1] is 10 to 1000 nM; in test [2] (Homo sapiens, MCF7, 2 h) it was 10 to 1000 nM; in test [3] (setting [4]), greater than 10000 nM.

Consider `Cc1cc(C)c(C(=O)N2CCN(c3cccc(F)c3[S@@](C)(=N)=O)CC2)cc1NC1CCN(c2ccccc2C#N)CC1` (single isomer, unassigned) [I-88], for which the IC50 in test [1] was 10 to 1000 nM; in test [2] (Homo sapiens, MCF7, 2 h), 10 to 1000 nM; in test [3] (setting [4]), greater than 10000 nM.

In the case of `Cc1cc(C)c(C(=O)N2CCN(c3cccnc3[S@](C)(=N)=O)CC2)c(C)c1NC1CCN(c2ncccc2Cl)CC1` (stereo in doubt) [I-176, (3-(4-(3-((1-(3-chloropyridin-2-yl)piperidin-4-yl)amino)-2,4,6-trimethylbenzoyl)piperazin-1-yl)pyridin-2-yl)(imino)(methyl)-16-sulfanone Trifluoroacetate Salt], the half-maximal inhibitory concentration (IC50) in test [1] was 10 to 1000 nM; in test [3] (2 hours compound incubation, read-out: pAKT in MCF7: IC50), greater than 10000 nM.

Turning to `Cc1cc(C)c(N(CCO)C2CCN(c3ccccc3C#N)CC2)cc1C(=O)N1CCN(c2ccccc2S(N)(=O)=O)CC1` [I-1, 2-(4-(5-((1-(2-Cyanophenyl)piperidin-4-yl)(2-hydroxyethyl)amino)-2,4-dimethylbenzoyl)piperazin-1-yl)benzenesulfonamide], the IC50 was 10 to 1000 nM in test [1]; 10 to 1000 nM in test [2] (Homo sapiens, MCF7, 2 h); greater than 10000 nM in test [3] (setting [4]).

`Cc1cc(C)c(C(=O)N2CCN(c3cccnc3S(N)(=O)=O)CC2)c(C)c1NC1CCN(c2ccccc2C#N)CC1` [I-2, 3-(4-(3-(1-(2-Cyanophenyl)piperidin-4-ylamino)-2,4,6-trimethylbenzoyl)piperazin-1-yl)pyridine-2-sulfonamide]: the 50% inhibitory concentration (IC50) in test [1] was 10 to 1000 nM; in test [2] (Homo sapiens, MCF7, 2 h) it was 10 to 1000 nM; in test [3] (setting [4]) it was greater than 10000 nM.

Turning to `Cc1cc(C)c(C(=O)N2CCN(c3cccnc3S(N)(=O)=O)CC2)cc1NC1CCN(c2ccccc2C#N)CC1` [I-3, 3-(4-(5-(1-(2-Cyanophenyl)piperidin-4-ylamino)-2,4-dimethylbenzoyl)piperazin-1-yl)pyridine-2-sulfonamide], the IC50 is 10 to 1000 nM in test [1]; 10 to 1000 nM in test [2] (Homo sapiens, MCF7, 2 h); greater than 10000 nM in test [3] (setting [4]).

As for `Cc1cc(C)c(C(=O)N2CCN(c3cccc(S(N)(=O)=O)c3)CC2)cc1NC1CCN(c2ccccc2Cl)CC1` [I-4, 3-(4-(5-(1-(2-Chlorophenyl)piperidin-4-ylamino)-2,4-dimethylbenzoyl)piperazin-1-yl)benzenesulfonamide], the IC50 in test [1] is greater than 10000 nM; in test [2] (Homo sapiens, MCF7, 2 h) it was 1000 to 3000 nM; in test [3] (setting [4]) it was greater than 10000 nM.

In the case of `Cc1cc(C)c(C(=O)N2CCN[C@@H](CO)C2)cc1NC1CCN(c2ccccc2C#N)CC1` [I-6, (R)-2-(4-(5-(3-(Hydroxymethyl)piperazine-1-carbonyl)-2,4-dimethylphenylamino)piperidin-1-yl)benzonitrile], the half-inhibitory concentration (IC50) is greater than 10000 nM in test [1]; greater than 10000 nM in test [2] (Homo sapiens, MCF7, 2 h); greater than 10000 nM in test [3] (setting [4]).

With `Cc1nc(C)c(C(=O)N2CCN(c3ccccc3S(N)(=O)=O)CC2)cc1NC1CCN(c2ccccc2C#N)CC1` [I-12, 2-(4-(5-(1-(2-Cyanophenyl)piperidin-4-ylamino)-2,6-dimethylnicotinoyl)piperazin-1-yl)benzenesulfonamide], the concentration for half-maximal inhibition (IC50) is greater than 10000 nM in test [1]; greater than 10000 nM in test [2] (Homo sapiens, MCF7, 2 h); greater than 10000 nM in test [3] (setting [4]).

As for `Cc1cc(C)c(C(=O)N2CCN(c3cccc(F)c3S(N)(=O)=O)CC2)c(C)c1NC1CCN(c2ccccc2C#N)CC1` [I-14, 2-(4-(3-(1-(2-Cyanophenyl)piperidin-4-ylamino)-2,4,6-trimethylbenzoyl)piperazin-1-yl)-6-fluorobenzenesulfonamide], the concentration for half-maximal inhibition (IC50) is 10 to 1000 nM in test [1]; 10 to 1000 nM in test [2] (Homo sapiens, MCF7, 2 h); greater than 10000 nM in test [3] (setting [4]).

As for `Cc1cc(C)c(C(=O)N2CCN(c3ncccc3S(N)(=O)=O)CC2)c(C)c1NC1CCN(c2ccccc2C#N)CC1` [I-15, 2-(4-(3-(1-(2-Cyanophenyl)piperidin-4-ylamino)-2,4,6-trimethylbenzoyl)piperazin-1-yl)pyridine-3-sulfonamide], the IC50 in test [1] is 10 to 1000 nM; in test [2] (Homo sapiens, MCF7, 2 h), 10 to 1000 nM; in test [3] (setting [4]) it was greater than 10000 nM.

Turning to `Cc1ccc(NC2CCN(c3ccccc3C#N)CC2)cc1C(=O)N1CCN(c2ccccc2S(N)(=O)=O)CC1` [I-22, 2-(4-(5-(1-(2-Cyanophenyl)piperidin-4-ylamino)-2-methylbenzoyl)piperazin-1-yl)benzenesulfonamide], the IC50 in test [1] is 3000 to 5000 nM; in test [2] (Homo sapiens, MCF7, 2 h), 3000 to 5000 nM; in test [3] (setting [4]) it was greater than 10000 nM.

As for `Cc1cc(C)c(C(=O)N2CCN(c3ncccc3S(N)(=O)=O)CC2)nc1NC1CCN(c2ccccc2C#N)CC1` [I-25, 2-(4-(6-(1-(2-Cyanophenyl)piperidin-4-ylamino)-3,5-dimethylpicolinoyl)piperazin-1-yl)pyridine-3-sulfonamide], the IC50 in test [1] was 10 to 1000 nM; in test [2] (Homo sapiens, MCF7, 2 h) it was 10 to 1000 nM; in test [3] (setting [4]), greater than 10000 nM.

For `Cc1cc(C)c(C(=O)N2CCN(c3ccccc3S(N)(=O)=O)C[C@@H]2C)nc1NC1CCN(c2ccccc2C#N)CC1` [I-26, (S)-2-(4-(6-(1-(2-Cyanophenyl)piperidin-4-ylamino)-3,5-dimethylpicolinoyl)-3-methylpiperazin-1-yl)benzenesulfonamide], the IC50 was 10 to 1000 nM in test [1]; 10 to 1000 nM in test [2] (Homo sapiens, MCF7, 2 h); greater than 10000 nM in test [3] (setting [4]).

As to `Cc1cc(C)c(C(=O)N2CCN(c3ccccc3S(N)(=O)=O)CC2)cc1NC1CCN(c2ccccc2C#N)CC1C` (stereo not drawn) [I-43, 2-(4-(5-(1-(2-Cyanophenyl)-3-methylpiperidin-4-ylamino)-2,4-dimethylbenzoyl)piperazin-1-yl)benzenesulfonamide], the IC50 in test [1] was 10 to 1000 nM; in test [2] (Homo sapiens, MCF7, 2 h) it was 10 to 1000 nM; in test [3] (setting [4]) it was greater than 10000 nM.

Turning to `Cc1cc(C)c(C(=O)N2CCN(c3cncc4cn[nH]c34)CC2)cc1NC1CCN(c2ccccc2C#N)CC1` [I-44, 2-(4-(5-(4-(1H-Pyrazolo[4,3-c]pyridin-7-yl)piperazine-1-carbonyl)-2,4-dimethylphenylamino)piperidin-1-yl)benzonitrile], the half-maximal inhibitory concentration (IC50) was 10 to 1000 nM in test [1]; 10 to 1000 nM in test [2] (Homo sapiens, MCF7, 2 h); greater than 10000 nM in test [3] (setting [4]).

For `Cc1cc(C)c(C(=O)N2CCN(c3cccc(F)c3[S@](C)(=N)=O)C[C@@H]2C)c(C)c1NC1CCN(c2ccccc2C#N)CC1` [I-192, 2-(4-(3-((2S)-4-(3-fluoro-2-(S-methylsulfonimidoyl)phenyl)-2-methylpiperazine-1-carbonyl)-2,4,6-trimethylphenylamino)piperidin-1-yl)benzonitrile], the 50% inhibitory concentration (IC50) in test [1] fell in the range of 10 to 1000 nM.
